Values quoted from earlier work, collected in US20240164377A1, “LOW VOLATILITY PROMOTING WATER CONDITIONING ADJUVANTS” (Adjuvants Unlimited LLC, priority 2014, published 2024).

| Structure (SMILES) | Volatility compared with another salt (in words) (background statement) | Volatility relative to the diglycolamine salt (reported, see WO 2011/019652 A2) |
| --- | --- | --- |
| COc1c(Cl)ccc(Cl)c1C(=O)O.NCCOCCO [diglycolamine salt of dicamba] | lower volatility than the dimethylamine salt of dicamba | – |
| COc1c(Cl)ccc(Cl)c1C(=O)O [free acid form of dicamba, 3,6-dichloro-2-methoxybenzoic acid] | – | about 100 times |
